Assay results taken from US20260061065A1, “ANTIBODY DRUG CONJUGATES” (priority 2022, published 2026).

How the values were obtained:
Format in all cases: cell-based
[1] = tested on: BICR-22 tongue cancer cells; test: CellTiter-Glo proliferation assay, BICR22
Procedure: (§1) OCUM-1: Stomach/gastric cancer—JCRB No. JCRB0192 cultured in DMEM+0.5 mM sodium pyruvate+10% FBS EBC-1: Lung cancer—JCRB No. JCRB0820 cultured in DMEM+10% FBS SKCO-1: Colon cancer—ATCC No. HTB-39 cultured in Eagle's Minimum Essential Medium+10% FBS The Her2 antibody drug conjugates were tested against nine endogenous cancer cell lines. NCI-N87: Stomach/gastric cancer—ATCC No. CRL-5822 cultured in RPMI-1640+10% FBS The PCAD antibody drug conjugates were tested against nine endogenous cancer cell lines. BICR-22: Tongue cancer—ECACC No. 04072106 cultured in DMEM+2 mM Glutamine+2% FBS+0.4 micrograms/ml Hydrocortisone
(§2) The ability of the antibody drug conjugates to inhibit cell proliferation and survival was assessed using the Promega CellTiter-Glo® proliferation assay.
(§3) Cell lines were cultured in media that is optimal for their growth at 5% CO2, 37° C. in a tissue culture incubator. […] On the day of seeding, cell viability and cell density were determined using a cell counter (Vi-Cell XR Cell Viability Analyzer, Beckman Coulter). […] Plates were incubated at 5% CO2, 37° C. for 5 days in a tissue culture incubator, after which cell viability was assessed through the addition of 25 μL of CellTiter Glo® (Promega, cat #G7573), a reagent which lyses cells and measures total adenosine triphosphate (ATP) content. […]

[2] = tested on: OCUM-1 stomach/gastric cancer cells; test: CellTiter-Glo proliferation assay, OCUM1
Procedure: as §1, §2, §3

[3] = tested on: SKCO-1 colon cancer cells; test: CellTiter-Glo proliferation assay, SKCO1
Procedure: as §1, §2, §3

[4] = tested on: NCI-N87 stomach/gastric cancer cells; test: CellTiter-Glo proliferation assay, NCIN87
Procedure: as §1, §2, §3

EBC-1 lung cancer cells = test: CellTiter-Glo proliferation assay, EBC1
Procedure: as §1, §2, §3

Structure (SMILES): CCC(C)[C@@H]([C@@H](CC(=O)N1CCC[C@H]1[C@H](OC)[C@@H](C)C(=O)N[C@@H](Cc1ccccc1)c1nccs1)OC)N(C)C(=O)[C@@H](NC(=O)[C@H]1N[C@@H]2CC[C@H]1C2)C(C)C (stereo partly shown) [Auristatin#1]
- IC50 ([1]; 120 h): 0.271 nM
- Amax (Span) ([1]; Unconjugated drug cytotoxicity, BICR22, 5 days): 89.7
- IC50 ([2]; OCUM1, 120 h): 1.38 nM
- Amax (Span) ([2]; Unconjugated drug cytotoxicity, OCUM1, 5 days): 72.3
- IC50 ([3]; Homo sapiens, SK-CO-1, 120 h): 1.13 nM
- Amax (Span) ([3]; Unconjugated drug cytotoxicity, SKCO1, 5 days): 81.6
- IC50 ([4]; Homo sapiens, NCI-N87, 120 h): 1.2 nM
- Amax (Span) ([4]; Unconjugated drug cytotoxicity, NCIN87, 5 days): 75.7
- IC50 (EBC-1 lung cancer cells; Homo sapiens, EBC-1, 120 h): 0.23 nM
- Amax (Span) (EBC-1 lung cancer cells; Unconjugated drug cytotoxicity, EBC1, 5 days): 77.0
